Patent publication US11053253B2, “Macrocyclic compounds for treatment of medical disorders” (Achillion Pharmaceuticals, Inc., priority 2017, dated 2021)

Target: Human Factor D (Homo sapiens (Human), UniProt P00746)
Experiment: Human Factor D Assay
Type: biochemical
Details: Human Factor D 80 nM, substrate Z-L-Lys-SBzl, DTNB, A405; read-out: IC50 (Stars)
Method: Example 2. Human Factor D Assay
Human Factor D (purified from human serum, Complement Technology, Inc.) at 80 nM final concentration is incubated with test compound at various concentrations for 5 min at room temperature in 50 mM Tris, 1M NaCl, pH 7.5. A synthetic substrate Z-L-Lys-SBzl and DTNB (Ellman's reagent) are added to final concentrations of 100 µM each. Absorbance at 405 nm (A405) is recorded at 30 second intervals for 30 minutes using a microplate spectrophotometer. IC50 values are calculated by nonlinear regression of Complement Factor D reaction rates as a function of test compound concentration.

Chain of Human Factor D (P00746 26-253): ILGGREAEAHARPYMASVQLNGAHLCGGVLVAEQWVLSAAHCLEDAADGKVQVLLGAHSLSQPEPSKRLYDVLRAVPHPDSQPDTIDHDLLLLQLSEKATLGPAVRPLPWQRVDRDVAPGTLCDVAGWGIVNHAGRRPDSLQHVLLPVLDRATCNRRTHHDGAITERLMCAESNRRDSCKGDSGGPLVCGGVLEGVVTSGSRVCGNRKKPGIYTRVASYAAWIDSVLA

**Q.** For `CC(=O)c1nn2c3c(cc(-c4cnc(C)nc4)cc13)CCCCCCC(=O)NC[C@@]13CC(C(=O)N[C@H](C)c4cccc(Cl)c4F)N(C(=O)C2)[C@@H]1C3` (stereo partly shown) [Compound T-227], which IC50 is on record?
**A.** < 1000 nM

**Q.** For `CC(=O)c1nn2c3c(cc(-c4cnc(C)nc4)cc13)CCCCCCC=CCc1ccc(Br)nc1NC(=O)[C@@H]1C[C@@]3(C)C[C@H]3N1C(=O)C2` [Compound T-37], which IC50 is on record?
**A.** < 1000 nM

**Q.** `CC(=O)c1nn(CC(=O)N2C[C@@]3(F)COCCCCOCc4ccc(Br)nc4NC(=O)[C@@H]2C3)c2ccc(-c3cnc(C)nc3)cc12` [Compound T-162] was tested. Which IC50 did it give?
**A.** < 1000 nM

**Q.** For `CC(=O)c1nn2c3cc(c(-c4cnc(C)nc4)cc13)OCCCCCCCCCC[C@@]13C[C@@H](C(=O)Nc4nc(Br)ccc4C)N(C(=O)C2)[C@@H]1C3` [Compound T-99], which IC50 is on record?
**A.** < 1000 nM

**Q.** With `CC(=O)c1nn2c3c(cc(-c4cnc(C)nc4)cc13)CCCCCCC(=O)NC[C@@]13C[C@@H](C(=O)Nc4ccc(F)c(Br)n4)N(C(=O)C2)[C@@H]1C3` [Compound T-213] as the compound, how does the IC50 read?
**A.** < 1000 nM

**Q.** Which IC50 does the source give for `Cc1ncc(-c2cc3c4c(c2)c(C(N)=O)nn4CC(=O)N2[C@H](C(=O)Nc4nc(Br)ccc4C)C[C@@]4(CNC(=O)CCCCCC3)C[C@@H]24)cn1` [Compound T-153] here?
**A.** < 1000 nM

**Q.** With `CC(=O)c1nn2c3c(cc(-c4cnc(C)nc4)cc13)CCCCCC(C)(C)C(=O)N(C)C[C@@]13C[C@@H](C(=O)Nc4cccc(C(F)(F)F)n4)N(C(=O)C2)[C@@H]1C3` [Compound T-186] as the compound, how does the IC50 read?
**A.** < 1000 nM

**Q.** For `CC(=O)c1nn(CC(=O)N2[C@H]3C[C@@]4(CNC(=O)C(C)(C)CCCCCc5ccc(Br)nc5NC3=O)C[C@@H]24)c2ccc(-c3cnc(C)nc3)cc12` [Compound T-182], which IC50 is on record?
**A.** < 1000 nM

**Q.** For `CC(=O)c1nn(CC(=O)N2[C@H]3C[C@@]4(COC/C=C\COCc5ccc(Br)nc5NC3=O)C[C@@H]24)c2cnc(-c3cnc(C)nc3)cc12` [Compound T-45], which IC50 is on record?
**A.** < 1000 nM

**Q.** `CC(=O)c1nn2c3c(nc(-c4cnc(C)nc4)cc13)C=CCCCC(=O)NC[C@@]13C[C@@H](C(=O)Nc4nc(C(F)(F)F)ccc4C)N(C(=O)C2)[C@@H]1C3` [Compound T-126] was tested. Which IC50 did it give?
**A.** < 1000 nM

**Q.** With `CC(=O)c1nn(CC(=O)N2C3CC34COCC=CCOCc3ccc(Br)nc3NC(=O)[C@@H]2C4)c2ccc(-c3cnc(C)nc3)cc12` (stereo partly drawn) [Compound T-1, (43S)-44-(2-(3-acetyl-5-(2-methylpyrimidin-5-yl)-1H-indazol-1-yl)acetyl)-16-bromo-6,11-dioxa-44,2-diaza-1(2,3)-pyridina-4(3,1)-bicyclo[3.1.0]hexanacyclododecaphan-8-en-3-one] as the compound, how does the IC50 read?
**A.** < 1000 nM

**Q.** For `CC(=O)c1nn(CC(=O)N2[C@H]3C[C@]4(C[C@@H]24)CN(C)CCCCOCc2ccc(Br)nc2NC3=O)c2ccc(-c3cnc(C)nc3)cc12` [Compound T-7, (41R,43S,45R)-42-(2-(3-acetyl-5-(2-methylpyrimidin-5-yl)-1H-indazol-1-yl)acetyl)-16-bromo-6-methyl-11-oxa-42,2,6-triaza-1(2,3)-pyridina-4(3,5)-bicyclo[3.1.0]hexanacyclododecaphan-3-one], which IC50 is on record?
**A.** < 1000 nM

**Q.** With `Cc1ncc(-c2cc3c4c(c2)c(C(N)=O)nn4CC(=O)N2[C@H](C(=O)Nc4nc(C(F)(F)F)ccc4C)C[C@@]4(COCCCCCCC3)C[C@@H]24)cn1` [Compound T-187] as the compound, how does the IC50 read?
**A.** < 1000 nM

**Q.** For `CC(=O)c1nn(CC(=O)N2[C@H]3C[C@]4(C[C@@H]24)CN(C)CCCCC=Cc2ccc(Br)nc2NC3=O)c2cnccc12` [Compound T-13, (41R,43S,45R)-42-(2-(3-acetyl-1H-pyrazolo[3,4-c]pyridin-1-yl)acetyl)-16-bromo-6-methyl-42,2,6-triaza-1(2,3)-pyridina-4(3,5)-bicyclo[3.1.0]hexanacyclododecaphan-11-en-3-one], which IC50 is on record?
**A.** < 1000 nM

**Q.** With `CC(=O)c1nn(CC(=O)N2[C@H]3C[C@]4(C[C@@H]24)CN(C)CCCC=CCc2ccc(Br)nc2NC3=O)c2cnc(-c3cnc(C)nc3)cc12` [Compound T-57] as the compound, how does the IC50 read?
**A.** < 1000 nM

**Q.** Which IC50 does the source give for `CC(=O)c1nn2c3c(cc(-c4cnc(C)nc4)cc13)CCCCCCC(=O)NC[C@@]13C[C@@H](C(=O)N[C@@H](C)CC(C)(C)C)N(C(=O)C2)[C@@H]1C3` [Compound T-226] here?
**A.** < 1000 nM

**Q.** Which IC50 does the source give for `CC(=O)c1nn2c3c(cc(-c4cnc(C)nc4)cc13)CCCCCCCc1cccc(c1)COC[C@@]13C[C@@H](C(=O)Nc4nc(Br)ccc4C)N(C(=O)C2)[C@@H]1C3` [Compound T-136] here?
**A.** < 1000 nM

**Q.** Which IC50 does the source give for `CC(=O)c1nn2c3c(cc(-c4cnc(C)nc4)cc13)CCCCCCC(=O)NC[C@@]13C[C@@H](C(=O)Nc4ccn(CC(F)(F)F)n4)N(C(=O)C2)[C@@H]1C3` [Compound T-92] here?
**A.** < 1000 nM

**Q.** For `CC(=O)c1nn2c3c(cc(-c4cnc(C)nc4)cc13)CC=CCC[C@H](C)C(=O)N(C)C[C@@]13C[C@@H](C(=O)Nc4nc(C(F)(F)F)ccc4C)N(C(=O)C2)[C@@H]1C3` [Compound T-243], which IC50 is on record?
**A.** < 1000 nM

**Q.** `Cc1ncc(-c2cc3c4c(c2)c(C#N)nn4CC(=O)N2[C@H](C(=O)Nc4nc(C(F)(F)F)ccc4C)C[C@@]4(COCC=CCCC3)C[C@@H]24)cn1` [Compound T-154] was tested. Which IC50 did it give?
**A.** < 1000 nM

**Q.** For `CC(=O)c1nn2c3c(cc(-c4cnc(C)nc4)cc13)CCCCCCC(=O)NC[C@@]1(F)C[C@@H](C(=O)Nc3nc(Br)ccc3C)N(C1)C(=O)C2` [Compound T-175], which IC50 is on record?
**A.** < 1000 nM

**Q.** Which IC50 does the source give for `COCc1ccc(Br)nc1NC(=O)[C@@H]1C[C@]23CNC(=O)CCCCCCc4cc(-c5cnc(C)nc5)cc5c(C(C)=O)nn(c45)CC(=O)N1[C@@H]2C3` [Compound T-241] here?
**A.** < 1000 nM

**Q.** With `CC(=O)c1nn2c3c(cc(-c4cnc(C)nc4)cc13)CCCCC[C@@H](C)C(=O)N(C)C[C@@]13C[C@@H](C(=O)Nc4nc(C(F)(F)F)ccc4C)N(C(=O)C2)[C@@H]1C3` [Compound T-205] as the compound, how does the IC50 read?
**A.** < 1000 nM

**Q.** `CC(=O)c1nn(CC(=O)N2[C@H]3C[C@@]4(COCCCCCCc5ccc(Br)nc5NC3=O)C[C@@H]24)c2cnc(-c3cnc(C)nc3)cc12` [Compound T-42] was tested. Which IC50 did it give?
**A.** < 1000 nM

**Q.** How did the IC50 turn out when `CC(=O)c1nn(CC(=O)N2[C@H]3C[C@@]4(COCCCCCCCc5ccc(Br)nc5NC3=O)C[C@@H]24)c2cnc(-c3cnc(C)nc3)cc12` [Compound T-41] was run?
**A.** < 1000 nM

**Q.** Which IC50 does the source give for `CC(=O)c1nn2c3c(cc(-c4cnc(C)nc4)cc13)CCCCCC(=O)NC[C@]1(F)C[C@@H](C(=O)Nc3nc(C(F)(F)F)ccc3C)N(C1)C(=O)C2` [Compound T-129] here?
**A.** 1000 to 10000 nM

**Q.** For `CC(=O)c1nn(CC(=O)N2[C@H]3C[C@]4(C[C@@H]24)Cn2ccc(n2)C=CCCC(F)(F)c2ccc(Br)nc2NC3=O)c2cnc(-c3cnc(C)nc3)cc12` [Compound T-105], which IC50 is on record?
**A.** < 1000 nM

**Q.** `CC(=O)c1nn(CC(=O)N2[C@H]3C[C@@]4(CCCCCCCOCc5ccc(Br)nc5NC3=O)C[C@@H]24)c2cnc(-c3cnc(C)nc3)cc12` [Compound T-88] was tested. Which IC50 did it give?
**A.** < 1000 nM

**Q.** With `CC(=O)c1nn2c3c(cc(-c4cnc(C)nc4)cc13)CCCCCCC(=O)NC[C@@]13C[C@@H](C(=O)NCc4cccc(Cl)c4)N(C(=O)C2)[C@@H]1C3` [Compound T-95] as the compound, how does the IC50 read?
**A.** < 1000 nM

**Q.** For `CC(=O)N[C@@H]1CC=CCOCc2ccc(Br)nc2NC(=O)[C@@H]2C[C@]3(C[C@H]3N2C(=O)Cn2nc(C(C)=O)c3cc(-c4cnc(C)nc4)ccc32)CN(C)C1=O` [Compound T-96], which IC50 is on record?
**A.** < 1000 nM

**Q.** How did the IC50 turn out when `CC(=O)c1nn(CC(=O)N2[C@H]3C[C@@]4(CNC(=O)C(C)(C)CCCCOCc5ccc(Br)nc5NC3=O)C[C@@H]24)c2cnc(-c3cnc(C)nc3)cc12` [Compound T-118] was run?
**A.** < 1000 nM

**Q.** For `CC(=O)c1nn2c3cc(c(-c4cnc(C)nc4)cc13)OCCCCCCCCC[C@@]13C[C@@H](C(=O)Nc4nc(Br)ccc4C)N(C(=O)C2)[C@@H]1C3` [Compound T-100], which IC50 is on record?
**A.** < 1000 nM

**Q.** How did the IC50 turn out when `CC(=O)c1nn2c3c(cc(-c4cnc(C)nc4)cc13)CCCCCCC(=O)NC[C@@]13C[C@@H](C(=O)Nc4cccc(-c5cc(F)c(F)cc5Cl)c4F)N(C(=O)C2)[C@@H]1C3` [Compound T-222] was run?
**A.** < 1000 nM

**Q.** For “(41R,43S,45R)-42-(2-(3-acetyl-5-(2- methylpyrimidin-5-yl)-1H-indazol-1- yl)acetyl)-16-bromo-6-methyl-7-thia-42,6- diaza-1(2,3)-pyridina-4(3,5)- bicyclo[3.1.0]hexanacycloundecaphan-10- en-3-one 7,7-dioxide [Compound T-17]”, which IC50 is on record?
**A.** < 1000 nM

**Q.** Which IC50 does the source give for `Cc1ncc(-c2cc3c4c(c2)c(C#N)nn4CC(=O)N2[C@H](C(=O)Nc4nc(C(F)(F)F)ccc4C)C[C@@]4(CNC(=O)CCCC=CC3)C[C@@H]24)cn1` [Compound T-133] here?
**A.** < 1000 nM

**Q.** With `CC(=O)c1nn2c3c(cc(-c4cnc(C)nc4)cc13)CCCCCc1cccc(n1)OC[C@@]13C[C@@H](C(=O)Nc4nc(Br)ccc4C)N(C(=O)C2)[C@@H]1C3` [Compound T-141] as the compound, how does the IC50 read?
**A.** < 1000 nM

**Q.** How did the IC50 turn out when `CC(=O)c1nn(CC(=O)N2[C@H]3C[C@]4(C[C@@H]24)Cn2cc(nn2)COCc2ccc(Br)nc2NC3=O)c2ccc(-c3cnc(C)nc3)cc12` [Compound T-18, (31R,33S,35R,Z)-32-(2-(3-acetyl-5-(2-methylpyrimidin-5-yl)-1H-indazol-1-yl)acetyl)-66-bromo-11H-8-oxa-32,5-diaza-6(2,3)-pyridina-1(1,4)-triazola-3(5,3)-bicyclo[3.1.0]hexanacyclononaphan-4-one] was run?
**A.** < 1000 nM

**Q.** Which IC50 does the source give for `CC(=O)c1nn2c3c(cc(-c4cnc(C)nc4)cc13)CCCCCCC(=O)NC[C@@]13C[C@@H](C(=O)Nc4nc(C(F)(F)F)ccc4C)N(C(=O)C2)[C@@H]1C3` [Compound T-220] here?
**A.** < 1000 nM

**Q.** With `CC(=O)c1nn(CC(=O)N2[C@H]3C[C@@]4(CCCCCCCN(C)Cc5ccc(Br)nc5NC3=O)C[C@@H]24)c2c(CF)cc(-c3cnc(C)nc3)cc12` [Compound T-97] as the compound, how does the IC50 read?
**A.** < 1000 nM

**Q.** Which IC50 does the source give for `CC(=O)c1nn2c3c(cc(-c4cnc(C)nc4)cc13)CCCCCCCCCOC[C@@]13C[C@@H](C(=O)Nc4nc(Br)ccc4C)N(C(=O)C2)[C@@H]1C3` [Compound T-24, (41R,43S,45S)-13-acetyl-N-(6-bromo-3-methylpyridin-2-yl)-15-(2-methylpyrimidin-5-yl)-3-oxo-11H-6-oxa-42-aza-1(1,7)-indazola-4(2,5)-bicyclo[3.1.0]hexanacyclopentadecaphane-43-carboxamide] here?
**A.** < 1000 nM
